Results on 3 molecules are retold here after patent US20260125649A1, “MEDIUM COMPOSITION AND METHOD FOR CULTURING MESENCHYMAL STEM CELLS” (ACADEMIA SINICA, priority 2018, published 2026).

Type in all cases: cell-based, human
Test [1] concerns TACE (Ser435), PS2 (Ser327), ERK1/2. Kind of test: Western blotting of phosphorylation of TACE, Presenilin 2 and ERK1/2. The following applies: addition of EGFR inhibitor. Here is the method:
FIG. 9. EpEX induces the phosphorylation and activity of TACE and γ-secretase. MSCs were stimulated by EpEX for the indicated times, and the activity of TACE and γ-secretase were detected. MSCs were stimulated by EpEX (3 μg/mL) for the indicated times. Western blot analysis was performed to detect the phosphorylation of TACE and Presenilin 2.
FIG. 10. EpEX and EGF induce the phosphorylation of TACE, ERK1/2 and PS2. MSCs were treated with either EGF, EpEX, or co-treated with EGF and EpEX for 5 min. The phosphorylation of ERK1/2 was examined by Western blotting with specific antibodies. […] The phosphorylation of ERK1/2, TACE (Ser435), PS2 (Ser327) were examined by Western blotting with specific antibodies.
Western blotting was performed as previously described (Takahashi et al., 2003). Cells were lysed in lysis buffer (150 mM NaCl, 50 mM Tris-HCl (pH 7.4), 1% Nonidet P-40), containing a protease inhibitor mix (Roche Applied Science). Nuclear fractions and cytoplasmic fractions were separated by the Nuclear/Cytosol Fractionation Kit according to the manufacturer's instructions (BioVision Inc., Milpitas, CA, USA). Protein samples were separated by SDS-PAGE under denaturing conditions, and transferred to a PVDF membrane (Millipore). […]
(In general: Immunoblotting shows a protein as a band on a membrane.)

Test [2] relates to MSCs. Kind of test: Cell cycle progression by flow cytometry with PI staining. The following applies: inhibitor pretreatment (AG1478 25 μM, 30 min; WP1066 5 μM), then EpEX 18 h. As to the method: Phospho-EGFR (Tyr845) was detected by Western blotting. […] After treatment, cell cycle progression was investigated by flow cytometry with PI staining. Fraction of cells in each phase (G1, S, G2/M) of the cell cycle was evaluated. Cells that expressed EGFR shRNA or shLuc were treated with EpEX for 18 h. After treatment, cell cycle progression was investigated by flow cytometry with PI staining. Fraction of cells in each phase (G1, S, G2/M) of the cell cycle was evaluated. […] The protein expression of cell cycle regulators (cyclin D1, cyclin D2, cyclin E1) and pluripotency factors (Oct4, Sox2, c-Myc, Lin28) was examined by Western blotting. MSCs expressing EGFR shRNA were stimulated by EpEX. After treatment, the protein expression of cell cycle regulators (cyclin D1, cyclin E1, CDK4 and CDK9) and pluripotency factors (Oct4, in Sox2, c-Myc, and Lin 28) was examined by Western blotting. […] After treatment, the gene expression of pluripotency factors (Oct4, Sox2, c-Myc, Lin28 and EpCAM) was examined by qPCR.
After treatment, the protein levels of total STAT3 and phospho-STAT3 (Tyr705) were examined by Western blotting. […] Cell cycle progression was investigated by flow cytometry with PI staining. Fraction of cells in each phase (G1, S, G2/M) of the cell cycle was evaluated. […] Fraction of cells in each phase (G1, S, G2/M) of the cell cycle was evaluated. […]
(A flow cytometer gives signals particle by particle.)

The subject of test [3] is STAT3 (Tyr705). Kind of test: STAT3 phosphorylation by Western blotting. As to the method: After treatment, the protein levels of total STAT3 and phospho-STAT3 (Tyr705) were examined by Western blotting. […] Cell cycle progression was investigated by flow cytometry with PI staining. Fraction of cells in each phase (G1, S, G2/M) of the cell cycle was evaluated. Cells expressing STAT3 shRNA were treated with EpEX for 18 h, after which cell cycle progression was investigated by flow cytometry with PI staining. Fraction of cells in each phase (G1, S, G2/M) of the cell cycle was evaluated. […] The protein levels of cell cycle regulators (cyclin D1, cyclin D2, cyclin E1, CDK4 and CDK9) and pluripotency factors (Oct4, Sox2, c-Myc, Lin28) were examined by Western blotting. MSCs expressing STAT3 shRNA or shLuc were stimulated with EpEX. After treatment, the protein levels of cell cycle regulators (cyclin D1, cyclin D2, cyclin E1, CDK4 and CDK9) and pluripotency factors (Oct4, Sox2, c-Myc, and Lin 28) were examined by Western blotting. […] After treatment, the gene expression of pluripotency factors (Oct4, Sox2, c-Myc, Lin28 and EpCAM) was examined by qPCR.
FIG. 8. EpEX and EGF induce the phosphorylation of EGFR and STAT3. […] The phosphorylation of EGFR (Tyr845) and STAT3 (Tyr705) were examined by Western blotting with specific antibodies.
Western blotting was performed as previously described (Takahashi et al., 2003). […]

The test system of test [4] is cyclin A2, cyclin D1, cyclin D2, cyclin D3, cyclin E1, CDK4, CDK9, Oct4, Sox2, c-Myc, Lin28. Kind of test: Western blotting of cell cycle regulators and pluripotency factors in MSCs. The following applies: pretreatment, then EpEX. Here is the method: The proliferation of MSCs was examined by measuring doubling time. MSCs were treated with EpEX (3 μg/mL) for 24 and 48 h. Cell number was counted and then doubling time was calculated. MSCs were treated with EpEX (3 μg/mL) for the indicated times. After treatment, protein expression of cell cycle regulators (cyclin D1, cyclin D2, cyclin D3, cyclin E1, CDK4 and CDK9) and pluripotency factors (Oct4, Sox2, c-Myc, and Lin28) was examined by Western blotting.
Phospho-EGFR (Tyr845) was detected by Western blotting. […] After treatment, cell cycle progression was investigated by flow cytometry with PI staining. Fraction of cells in each phase (G1, S, G2/M) of the cell cycle was evaluated. Cells that expressed EGFR shRNA or shLuc were treated with EpEX for 18 h. After treatment, cell cycle progression was investigated by flow cytometry with PI staining. Fraction of cells in each phase (G1, S, G2/M) of the cell cycle was evaluated. […]
After treatment, the protein levels of total STAT3 and phospho-STAT3 (Tyr705) were examined by Western blotting. […] Fraction of cells in each phase (G1, S, G2/M) of the cell cycle was evaluated. […] Fraction of cells in each phase (G1, S, G2/M) of the cell cycle was evaluated. […]
The expression of let-7 was detected by qPCR. […] The expression of let-7 was detected by qPCR. […]

As for `COc1cc2ncnc(Nc3cccc(Cl)c3)c2cc1OC` [AG1478, reference compound], in test [1], the “effect on EpEX-induced phosphorylation of TACE” value is “can be abolished” and the “effect on EpEX-induced phosphorylation of presenilin-2” value is “can be abolished”. Further, in test [2], the “effect on EpEX-induced cell cycle progression” value was “attenuated”. Also, in test [3] (pretreatment with AG1478), the “effect on activation of STAT3 by either EGF or EpEX” value is “can attenuate”. Besides, the “effect on EpEX-induced protein expression of cell cycle regulators and pluripotency markers” value in test [4] is “abolished”.
Consider `C[C@H](NC(=O)/C(C#N)=C/c1cccc(Br)n1)c1ccccc1` [WP1066, reference compound], for which the “effect on EpEX-induced cell cycle progression” value in test [2] is reported as “attenuated”. In test [4], the “effect on EpEX-induced protein expression of cell cycle regulators and pluripotency markers” value is reported as “blocked”.
Turning to EGF: cognate ligand for EGFR, the STAT3 phosphorylation entry in test [3] (MSCs treated with the substance) is reported as “can induce”.
